ChEMBL document CHEMBL2311386, “Alkyl substituted 2'-benzoylpyridine thiosemicarbazone chelators with potent and selective anti-neoplastic activity: novel ligands that limit methemoglobin formation” (J Med Chem, 2013)

Assays:
SK-N-MC [1] = assay: Cytotoxicity against human SK-N-MC cells assessed as growth inhibition after 72 hrs by MTT assay; type: functional, cell-based
[2] = Induction of ascorbate oxidation in citrate buffer in presence of 10 uM Fe3+ at 1 to 60 uM; type: physicochemical
[3] = Therapeutic index, ratio of IC50 for human MRC5 cells to IC50 for human SK-N-MC cells; type: cell-based; conditions: MRC5 cells and SK-N-MC cells, read-out: Ratio IC50
MRC5 = assay: Cytotoxicity against human MRC5 cells assessed as growth inhibition after 72 hrs by MTT assay; type: cell-based; conditions: MRC5, 72 h
[4] = Toxicity in intact human RBC assessed as methemoglobin formation at 25 uM after 3 hrs relative to untreated control; type: cell-based; conditions: erythrocyte
[5] = Toxicity in intact human RBC assessed as methemoglobin formation using Fe(compound)2 complex at 25 uM after 3 hrs relative to untreated control; type: cell-based; conditions: erythrocyte
[6] = Toxicity in human RBC lysates assessed as methemoglobin formation using Fe(compound)2 complex at 25 uM after 3 hrs relative to control; set-up: species or system Lysate; conditions: erythrocyte
[7] = Toxicity in human RBC lysates assessed as methemoglobin formation at 25 uM after 3 hrs relative to control; set-up: species or system Lysate; conditions: erythrocyte
SK-N-MC [8] = assay: Reduction of cellular 59Fe uptake from 59Fe-Transferrin in human SK-N-MC cells assessed as 59Fe level prelabeled with 59Fe2-Tf at 25 uM after 3 hrs relative to control; type: functional; set-up: scale not given: the % may be the effect or the level left
[9] = Toxicity in human RBC lysates assessed as methemoglobin formation at 25 uM after 3 hrs (reference value: 1.2 +/- 8%); type: cell-based, Lysate; conditions: erythrocyte
[10] = Toxicity in intact human RBC assessed as methemoglobin formation using Fe(compound)2 complex at 25 uM after 3 hrs relative to free ligand; conditions: erythrocyte

| SMILES | IC50 (SK-N-MC [1]) | Activity [2] | selectivity ratio [3] | IC50 (MRC5) | Activity [4] | Activity [5] | Activity [6] | Activity [7] | Activity (SK-N-MC [8]) | fold change (FC) [4] | Activity [9] | fold change (FC) [10] |
| --- | --- | --- | --- | --- | --- | --- | --- | --- | --- | --- | --- | --- |
| CN(C)C(=S)N/N=C(\c1ccccc1)c1ccccn1 | 5 nM | Not Active | 202 |  |  |  |  |  |  |  |  |  |
| NC(=S)N/N=C(\c1ccccc1)c1ccccn1 | 3800 nM | Active | > 3 | > 12500 nM | Toxic | Toxic | Non-toxic | Non-toxic |  |  |  |  |
| CNC(=S)N/N=C(\c1ccc(C(C)(C)C)cc1)c1ccccn1 | 15 nM |  | 164 | 2460 nM | Non-toxic | Non-toxic | Non-toxic | Non-toxic |  |  |  |  |
| CC(C)(C)c1ccc(/C(=N\NC(=S)Nc2ccccc2)c2ccccn2)cc1 | 109 nM |  | 17 | 1890 nM | Non-toxic | Non-toxic | Non-toxic | Non-toxic |  |  |  |  |
| COc1ccc(/C(=N\NC(=S)Nc2ccccc2)c2ccccn2)cc1 | 19 nM |  | 45 | 864 nM | Non-toxic | Non-toxic | Non-toxic | Non-toxic |  |  |  |  |
| Cc1ccc(/C(=N\NC(=S)Nc2ccccc2)c2ccccn2)cc1 | 24 nM |  | 63 | 1520 nM | Non-toxic | Non-toxic | Non-toxic | Non-toxic |  |  |  |  |
| CN(C)C(=S)N/N=C(\c1ccc(C(C)(C)C)cc1)c1ccccn1 | 72 nM | Not Active | 15 | 1070 nM | Non-toxic | Non-toxic |  |  |  |  |  |  |
| COc1ccc(/C(=N\NC(=S)N(C)C)c2ccccn2)cc1 | 17 nM | Not Active | 66 | 1140 nM | Non-toxic | Non-toxic |  |  | 8% |  |  |  |
| Cc1ccc(/C(=N\NC(=S)N(C)C)c2ccccn2)cc1 | 7 nM | Not Active | 131 | 921 nM | Non-toxic | Non-toxic |  |  | 8% |  |  |  |
| CCNC(=S)N/N=C(\c1ccc(OC)cc1)c1ccccn1 | 16 nM |  | 102 | 1650 nM | Non-toxic | Non-toxic | Non-toxic | Non-toxic | 8% |  |  |  |
| CCNC(=S)N/N=C(\c1ccc(C(C)(C)C)cc1)c1ccccn1 | 20 nM |  | 147 | 2940 nM | Non-toxic | Non-toxic | Non-toxic | Non-toxic |  |  |  |  |
| CCNC(=S)N/N=C(\c1ccc(C)cc1)c1ccccn1 | 13 nM |  | 164 | 2140 nM | Non-toxic | Non-toxic | Non-toxic | Non-toxic | 8% |  |  |  |
| CNC(=S)N/N=C(\c1ccc(OC)cc1)c1ccccn1 | 22 nM |  | 92 | 2030 nM | Non-toxic | Non-toxic | Non-toxic | Non-toxic | 8% |  |  |  |
| CNC(=S)N/N=C(\c1ccc(C)cc1)c1ccccn1 | 15 nM |  | 141 | 2120 nM | Non-toxic | Non-toxic | Toxic | Toxic | 8% |  |  |  |
| CC(C)(C)c1ccc(/C(=N\NC(N)=S)c2ccccn2)cc1 | 14 nM | Active | 58 | 814 nM | Non-toxic | Non-toxic | Non-toxic | Non-toxic |  |  |  |  |
| Cc1ccc(/C(=N\NC(N)=S)c2ccccn2)cc1 | 146 nM | Active | > 85 | > 12500 nM | Toxic | Toxic | Toxic | Toxic | 8% |  |  |  |
| COc1ccc(/C(=N\NC(N)=S)c2ccccn2)cc1 | 3950 nM | Active | > 3 | > 12500 nM | Toxic | Toxic | Non-toxic | Non-toxic | 8% |  |  |  |
| CNC(=S)N/N=C(\c1ccccc1)c1ccccn1 | 20 nM |  | 116 |  | Non-toxic | Non-toxic | Non-toxic | Non-toxic |  |  |  |  |
| CN(C)C(=S)NN=C(c1ccccn1)c1ccccn1 | 7 nM | Active |  |  |  |  |  |  | 4% | 45 | 12% | 2.3 |
| S=C(N/N=C(\c1ccccc1)c1ccccn1)Nc1ccccc1 | 16 nM |  | 36 | 571 nM | Non-toxic | Non-toxic | Non-toxic | Non-toxic |  |  |  |  |
| CCNC(=S)N/N=C(\c1ccccc1)c1ccccn1 | 14 nM |  | 106 | 1490 nM | Non-toxic | Non-toxic | Non-toxic | Non-toxic |  |  |  |  |
| CC(=O)N(O)CCCCCNC(=O)CCC(=O)N(O)CCCCCNC(=O)CCC(=O)N(O)CCCCCN [DEFEROXAMINE] |  |  |  |  |  |  |  |  | 77% |  |  |  |
| NC(=S)N/N=C/c1ncccc1N [TRIAPINE] |  |  |  |  |  |  |  |  | 54% | 38 | 17% |  |
